# Where “and” joins values, the source holds several entries; their conditions need not be identical. Equal values may be shown once. Calls of active or inactive are those of the source.
# Experiments:
# Large T antigen = Large T antigen (Simian virus 40, UniProt P03070); format: functional, Betapolyomavirus macacae;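 note: Confirmatory-stage PubChem screen for compounds that inhibit SV40 T antigen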
# [1] = molecular target: Lysine-specific demethylase 4A (Homo sapiens, UniProt O75164); test: inhibition of JMJD2A H3K9me3 demethylation – biochemical, DELFIA europium, cherry-picked samples, selectivity assay for GASC-1 inhibitor project, dose response (AID 488840)
# Lysine-specific demethylase 4A, sequence (O75164 whole entry): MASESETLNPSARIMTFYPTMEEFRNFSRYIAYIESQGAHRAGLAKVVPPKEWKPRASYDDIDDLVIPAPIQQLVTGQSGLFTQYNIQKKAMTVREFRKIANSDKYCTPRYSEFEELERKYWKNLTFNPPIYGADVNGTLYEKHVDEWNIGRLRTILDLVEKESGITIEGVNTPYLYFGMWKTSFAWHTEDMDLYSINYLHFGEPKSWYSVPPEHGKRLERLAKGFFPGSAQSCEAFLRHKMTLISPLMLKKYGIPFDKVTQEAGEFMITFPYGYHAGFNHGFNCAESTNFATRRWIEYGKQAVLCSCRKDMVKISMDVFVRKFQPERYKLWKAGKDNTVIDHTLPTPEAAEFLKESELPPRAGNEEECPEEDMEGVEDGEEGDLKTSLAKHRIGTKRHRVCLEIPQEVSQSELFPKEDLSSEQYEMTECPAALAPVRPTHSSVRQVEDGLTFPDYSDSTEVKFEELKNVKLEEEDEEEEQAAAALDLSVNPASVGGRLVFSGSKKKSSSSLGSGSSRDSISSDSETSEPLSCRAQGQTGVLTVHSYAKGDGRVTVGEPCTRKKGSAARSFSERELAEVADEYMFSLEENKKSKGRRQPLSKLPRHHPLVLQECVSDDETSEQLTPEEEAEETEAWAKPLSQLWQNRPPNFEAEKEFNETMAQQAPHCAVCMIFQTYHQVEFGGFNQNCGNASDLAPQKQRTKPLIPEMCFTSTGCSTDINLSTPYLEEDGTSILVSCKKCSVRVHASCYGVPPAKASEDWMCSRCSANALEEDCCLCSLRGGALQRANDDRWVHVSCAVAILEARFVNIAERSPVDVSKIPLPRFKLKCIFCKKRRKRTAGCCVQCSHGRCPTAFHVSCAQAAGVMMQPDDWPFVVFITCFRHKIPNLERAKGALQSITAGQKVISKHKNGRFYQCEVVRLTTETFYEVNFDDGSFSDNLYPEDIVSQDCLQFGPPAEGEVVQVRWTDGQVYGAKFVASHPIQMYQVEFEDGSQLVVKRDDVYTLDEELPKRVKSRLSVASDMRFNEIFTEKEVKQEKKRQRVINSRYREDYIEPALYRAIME
# [2] = molecular target: T1, Lysine-specific demethylase 4C (Homo sapiens, UniProt Q9H3R0); test: inhibition of JMJD2C H3K9me3 demethylation – biochemical, DELFIA europium, cherry-picked samples, dose response (AID 488835); format: functional
# T1 sequence (Q9H3R0 whole entry): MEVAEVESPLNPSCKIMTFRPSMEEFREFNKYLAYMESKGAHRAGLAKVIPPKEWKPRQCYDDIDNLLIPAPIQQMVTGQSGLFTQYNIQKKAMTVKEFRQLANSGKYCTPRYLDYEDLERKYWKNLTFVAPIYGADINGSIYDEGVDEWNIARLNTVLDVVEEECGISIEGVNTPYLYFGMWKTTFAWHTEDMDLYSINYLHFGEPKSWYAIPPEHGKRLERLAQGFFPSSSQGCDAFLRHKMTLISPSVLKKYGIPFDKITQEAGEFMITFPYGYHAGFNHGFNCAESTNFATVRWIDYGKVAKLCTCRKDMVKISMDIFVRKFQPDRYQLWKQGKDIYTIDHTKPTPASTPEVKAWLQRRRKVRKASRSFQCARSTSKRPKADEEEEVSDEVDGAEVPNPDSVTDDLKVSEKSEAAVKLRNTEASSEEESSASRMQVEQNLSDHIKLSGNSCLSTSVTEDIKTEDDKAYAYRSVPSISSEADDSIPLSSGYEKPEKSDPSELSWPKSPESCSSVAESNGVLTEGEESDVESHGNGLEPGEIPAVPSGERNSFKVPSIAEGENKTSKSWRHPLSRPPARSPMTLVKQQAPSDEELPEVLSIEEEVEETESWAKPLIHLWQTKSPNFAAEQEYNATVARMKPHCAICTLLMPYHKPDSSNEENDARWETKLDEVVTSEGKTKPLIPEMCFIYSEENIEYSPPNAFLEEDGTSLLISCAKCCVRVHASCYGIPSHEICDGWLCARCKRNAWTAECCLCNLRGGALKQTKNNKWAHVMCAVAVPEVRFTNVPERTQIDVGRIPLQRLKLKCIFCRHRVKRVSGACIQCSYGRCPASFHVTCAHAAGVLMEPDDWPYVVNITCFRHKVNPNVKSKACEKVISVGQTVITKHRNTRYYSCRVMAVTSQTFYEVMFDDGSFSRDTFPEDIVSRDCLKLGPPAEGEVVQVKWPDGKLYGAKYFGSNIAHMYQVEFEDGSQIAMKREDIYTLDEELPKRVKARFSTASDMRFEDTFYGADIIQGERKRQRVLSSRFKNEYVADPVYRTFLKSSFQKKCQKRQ
# [3] = molecular target: T2, Carboxy-terminal domain RNA polymerase II polypeptide A small phosphatase 1 (Homo sapiens, UniProt Q9GZU7); test: CTDSP1 inhibitors, concentration-response, biochemical, absorbance readout, ultra-high-throughput screen actives (AID 540297); format: functional
# T2 sequence (Q9GZU7 whole entry): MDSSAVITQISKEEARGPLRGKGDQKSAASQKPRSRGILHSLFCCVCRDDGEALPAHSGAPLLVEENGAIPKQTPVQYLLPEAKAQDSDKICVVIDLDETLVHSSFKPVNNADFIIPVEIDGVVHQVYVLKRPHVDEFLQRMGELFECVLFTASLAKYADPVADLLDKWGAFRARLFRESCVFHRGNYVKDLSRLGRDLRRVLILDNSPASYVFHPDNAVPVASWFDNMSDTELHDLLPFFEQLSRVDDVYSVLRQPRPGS
# Albumin = Albumin (Bos taurus, UniProt P02769); test: Counterscreen for inhibitors of T-cell receptor (TCR)-CD3 interaction: Fluorescence-based biochemical high throughput dose response assay to identify inhibitors of T-cell receptor (TCR)-CD3 interaction using a TAMRA-labeled BSA probe.; format: functional
# Albumin, sequence (P02769 whole entry): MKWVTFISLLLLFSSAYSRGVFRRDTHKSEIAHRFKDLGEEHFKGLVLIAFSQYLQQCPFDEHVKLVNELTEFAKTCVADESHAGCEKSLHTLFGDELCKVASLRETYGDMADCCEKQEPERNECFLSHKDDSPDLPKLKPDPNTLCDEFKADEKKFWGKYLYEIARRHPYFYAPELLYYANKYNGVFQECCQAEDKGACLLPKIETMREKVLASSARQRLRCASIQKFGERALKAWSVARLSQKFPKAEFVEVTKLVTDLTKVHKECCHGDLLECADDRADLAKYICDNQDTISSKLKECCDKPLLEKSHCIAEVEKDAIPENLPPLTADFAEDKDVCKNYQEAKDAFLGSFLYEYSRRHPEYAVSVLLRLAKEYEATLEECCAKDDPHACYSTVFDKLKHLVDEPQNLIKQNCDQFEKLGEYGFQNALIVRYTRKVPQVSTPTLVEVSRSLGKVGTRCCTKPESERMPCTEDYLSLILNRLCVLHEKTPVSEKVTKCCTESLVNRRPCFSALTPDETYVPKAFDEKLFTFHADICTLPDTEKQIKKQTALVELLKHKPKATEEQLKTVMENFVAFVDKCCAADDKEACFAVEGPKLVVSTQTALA
# [4] = molecular target: T3, Tyrosine-protein phosphatase non-receptor type 22 (Homo sapiens, UniProt Q9Y2R2); test: LYP1 Fluorescent Assay using OMFP substrate for In Vitro dose response studies. [Related pubchem assays (depositor defined):AID1779, AID1784, AID435024]
# T3 sequence (Q9Y2R2 whole entry): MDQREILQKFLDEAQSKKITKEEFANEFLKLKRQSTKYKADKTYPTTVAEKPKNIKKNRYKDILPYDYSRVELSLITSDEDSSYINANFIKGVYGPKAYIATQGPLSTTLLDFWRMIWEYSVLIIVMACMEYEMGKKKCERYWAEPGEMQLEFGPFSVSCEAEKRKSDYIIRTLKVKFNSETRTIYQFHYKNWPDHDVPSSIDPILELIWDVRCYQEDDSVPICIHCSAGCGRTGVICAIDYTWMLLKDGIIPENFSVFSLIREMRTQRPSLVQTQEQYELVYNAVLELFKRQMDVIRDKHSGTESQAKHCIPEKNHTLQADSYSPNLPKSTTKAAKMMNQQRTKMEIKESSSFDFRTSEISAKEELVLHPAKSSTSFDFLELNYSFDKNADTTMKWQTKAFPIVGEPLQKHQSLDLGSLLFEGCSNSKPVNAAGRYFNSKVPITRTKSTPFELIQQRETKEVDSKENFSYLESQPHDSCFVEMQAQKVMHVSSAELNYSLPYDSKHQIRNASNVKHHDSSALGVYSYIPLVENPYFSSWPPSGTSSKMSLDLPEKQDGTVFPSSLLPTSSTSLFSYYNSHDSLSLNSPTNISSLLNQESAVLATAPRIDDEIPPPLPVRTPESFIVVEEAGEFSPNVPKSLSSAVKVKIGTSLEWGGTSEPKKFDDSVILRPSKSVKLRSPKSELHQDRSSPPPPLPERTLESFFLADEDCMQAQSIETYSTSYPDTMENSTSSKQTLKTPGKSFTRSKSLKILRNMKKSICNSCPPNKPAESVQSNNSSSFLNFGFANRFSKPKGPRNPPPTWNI
# Aminopeptidase N = molecular target: T4, Aminopeptidase N (Plasmodium falciparum FcB1/Columbia, UniProt O96935); test: malaria alanyl aminopeptidase activity blockers – biochemical, fluorogenic H-Leu-NHMec substrate, 1536-well (AID 1445); design: species or system Plasmodium falciparum 3D7, 3D7
# T4 sequence (O96935 whole entry): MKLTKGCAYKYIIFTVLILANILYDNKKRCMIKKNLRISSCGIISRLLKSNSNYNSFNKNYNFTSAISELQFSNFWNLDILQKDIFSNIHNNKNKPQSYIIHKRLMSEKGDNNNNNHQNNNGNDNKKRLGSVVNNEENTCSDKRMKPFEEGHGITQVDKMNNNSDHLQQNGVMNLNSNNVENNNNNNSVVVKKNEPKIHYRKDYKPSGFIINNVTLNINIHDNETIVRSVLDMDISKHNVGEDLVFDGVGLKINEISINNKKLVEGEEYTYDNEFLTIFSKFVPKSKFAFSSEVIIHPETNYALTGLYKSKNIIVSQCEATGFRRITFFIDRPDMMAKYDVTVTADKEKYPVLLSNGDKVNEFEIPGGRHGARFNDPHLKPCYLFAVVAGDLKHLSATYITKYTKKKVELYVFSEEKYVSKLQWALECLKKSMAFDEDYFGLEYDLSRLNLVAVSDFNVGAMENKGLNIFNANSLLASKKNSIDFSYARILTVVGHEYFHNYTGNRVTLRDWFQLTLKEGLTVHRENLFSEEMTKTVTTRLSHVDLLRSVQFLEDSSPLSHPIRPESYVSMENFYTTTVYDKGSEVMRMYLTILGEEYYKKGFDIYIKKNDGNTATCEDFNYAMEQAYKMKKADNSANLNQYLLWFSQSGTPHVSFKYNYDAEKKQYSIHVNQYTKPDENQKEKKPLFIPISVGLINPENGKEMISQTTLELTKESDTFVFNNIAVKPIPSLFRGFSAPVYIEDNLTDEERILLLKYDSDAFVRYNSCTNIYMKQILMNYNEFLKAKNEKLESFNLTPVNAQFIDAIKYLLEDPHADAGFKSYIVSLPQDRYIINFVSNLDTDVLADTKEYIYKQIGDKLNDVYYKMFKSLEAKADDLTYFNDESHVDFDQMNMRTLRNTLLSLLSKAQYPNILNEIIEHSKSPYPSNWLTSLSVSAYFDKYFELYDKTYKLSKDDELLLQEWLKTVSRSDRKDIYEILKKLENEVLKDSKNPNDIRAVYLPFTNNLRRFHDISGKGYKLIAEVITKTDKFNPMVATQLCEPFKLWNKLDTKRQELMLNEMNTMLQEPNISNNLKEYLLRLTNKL
# [5] = molecular target: T5, Dual specificity protein phosphatase 3 (Homo sapiens, UniProt P51452); test: VHR1 phosphatase inhibitors, primary screen, biochemical, absorbance, uHTS (AID 1654)
# T5 sequence (P51452 whole entry): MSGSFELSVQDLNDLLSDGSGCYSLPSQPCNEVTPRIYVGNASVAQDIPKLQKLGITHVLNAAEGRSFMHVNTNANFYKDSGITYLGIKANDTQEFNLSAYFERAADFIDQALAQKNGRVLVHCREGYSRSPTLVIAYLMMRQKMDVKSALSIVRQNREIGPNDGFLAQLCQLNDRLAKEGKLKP
# [6] = molecular target: T6, Tyrosine-protein phosphatase non-receptor type 7 (Homo sapiens, UniProt P35236); format: functional
# T6 sequence (P35236 whole entry): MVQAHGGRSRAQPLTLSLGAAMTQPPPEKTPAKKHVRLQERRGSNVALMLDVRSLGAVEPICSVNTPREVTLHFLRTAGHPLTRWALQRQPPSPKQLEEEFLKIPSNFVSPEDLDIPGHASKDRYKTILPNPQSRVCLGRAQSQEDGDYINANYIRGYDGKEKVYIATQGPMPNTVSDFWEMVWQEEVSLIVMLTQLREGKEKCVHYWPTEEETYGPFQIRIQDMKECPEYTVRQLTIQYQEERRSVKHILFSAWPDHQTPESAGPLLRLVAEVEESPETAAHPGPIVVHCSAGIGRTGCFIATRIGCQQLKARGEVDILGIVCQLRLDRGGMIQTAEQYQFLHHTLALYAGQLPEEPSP
# [7] = molecular target: T6, Tyrosine-protein phosphatase non-receptor type 7; test: HTS HePTP Fluorescent Assay using OMFP substrate for In Vitro dose response studies. [Related pubchem assays (depositor defined):AID1059, AID1077, AID1784, AID2068, AID2085, AID435032, AID521]; format: functional
# [8] = molecular target: T3, Tyrosine-protein phosphatase non-receptor type 22; test: PTPN22 lymphoid phosphatase activity blockers – biochemical, fluorescence intensity, uHTS (AID 1779)
# [9] = molecular target: T5, Dual specificity protein phosphatase 3; test: VHR1 phosphatase inhibitors, biochemical (AID 1878)
# [10] = molecular target: T7, Dual specificity protein phosphatase 6 (Rattus norvegicus, UniProt Q64346); test: inhibition of rat DUSP6 enzyme activity – biochemical, in vitro, primary screen (AID 425)
# T7 sequence (Q64346 whole entry): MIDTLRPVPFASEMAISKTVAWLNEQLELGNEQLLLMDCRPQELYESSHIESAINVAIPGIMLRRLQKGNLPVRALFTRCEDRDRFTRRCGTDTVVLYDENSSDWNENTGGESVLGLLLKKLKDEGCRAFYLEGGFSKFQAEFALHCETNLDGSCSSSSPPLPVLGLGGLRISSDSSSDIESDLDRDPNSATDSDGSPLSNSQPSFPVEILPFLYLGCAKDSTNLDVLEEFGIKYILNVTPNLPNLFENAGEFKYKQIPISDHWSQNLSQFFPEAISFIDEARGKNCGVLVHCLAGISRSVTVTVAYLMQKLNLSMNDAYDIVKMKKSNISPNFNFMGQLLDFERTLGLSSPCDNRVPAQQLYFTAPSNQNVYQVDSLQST
# [11] = molecular target: T3, Tyrosine-protein phosphatase non-receptor type 22; format: functional
# [12] = molecular target: T3, Tyrosine-protein phosphatase non-receptor type 22; format: functional; remark: listed apart in the source
# [13] = molecular target: Glyceraldehyde-3-phosphate dehydrogenase (Homo sapiens, UniProt P04406)
# Glyceraldehyde-3-phosphate dehydrogenase, sequence (P04406 whole entry): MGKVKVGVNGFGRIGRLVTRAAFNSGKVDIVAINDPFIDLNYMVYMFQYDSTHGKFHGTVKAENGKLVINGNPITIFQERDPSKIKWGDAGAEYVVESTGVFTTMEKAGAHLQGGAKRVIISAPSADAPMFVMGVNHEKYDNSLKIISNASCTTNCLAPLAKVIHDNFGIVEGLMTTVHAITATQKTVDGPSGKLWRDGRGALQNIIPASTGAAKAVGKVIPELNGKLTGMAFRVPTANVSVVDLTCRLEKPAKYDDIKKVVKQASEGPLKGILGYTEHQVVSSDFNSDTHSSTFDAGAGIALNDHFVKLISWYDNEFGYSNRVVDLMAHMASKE
# [14] = molecular target: Alkaline phosphatase, placental type (Homo sapiens, UniProt P05187); test: human placental alkaline phosphatase inhibition – biochemical, luminescence, confirmation (AID 1512); format: functional
# Alkaline phosphatase, placental type, sequence (P05187 whole entry): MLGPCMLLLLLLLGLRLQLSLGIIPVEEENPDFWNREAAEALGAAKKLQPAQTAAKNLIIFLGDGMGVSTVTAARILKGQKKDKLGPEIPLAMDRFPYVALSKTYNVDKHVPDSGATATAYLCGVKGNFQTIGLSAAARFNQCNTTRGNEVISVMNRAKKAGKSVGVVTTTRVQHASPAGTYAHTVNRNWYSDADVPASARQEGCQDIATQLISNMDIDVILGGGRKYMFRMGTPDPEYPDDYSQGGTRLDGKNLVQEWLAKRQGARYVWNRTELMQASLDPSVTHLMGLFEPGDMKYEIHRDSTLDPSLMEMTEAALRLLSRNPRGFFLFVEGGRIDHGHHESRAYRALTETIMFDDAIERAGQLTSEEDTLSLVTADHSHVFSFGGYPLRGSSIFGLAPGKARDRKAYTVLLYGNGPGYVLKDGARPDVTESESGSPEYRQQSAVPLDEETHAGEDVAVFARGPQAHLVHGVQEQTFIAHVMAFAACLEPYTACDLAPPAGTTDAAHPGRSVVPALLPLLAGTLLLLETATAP
# [15] = molecular target: T8, Alkaline phosphatase, tissue-nonspecific isozyme (Homo sapiens, UniProt P05186); test: potency against alkaline phosphatase TNAP – biochemical, luminescent, dose response, SAR follow-up (AID 1056)
# T8 sequence (P05186 whole entry): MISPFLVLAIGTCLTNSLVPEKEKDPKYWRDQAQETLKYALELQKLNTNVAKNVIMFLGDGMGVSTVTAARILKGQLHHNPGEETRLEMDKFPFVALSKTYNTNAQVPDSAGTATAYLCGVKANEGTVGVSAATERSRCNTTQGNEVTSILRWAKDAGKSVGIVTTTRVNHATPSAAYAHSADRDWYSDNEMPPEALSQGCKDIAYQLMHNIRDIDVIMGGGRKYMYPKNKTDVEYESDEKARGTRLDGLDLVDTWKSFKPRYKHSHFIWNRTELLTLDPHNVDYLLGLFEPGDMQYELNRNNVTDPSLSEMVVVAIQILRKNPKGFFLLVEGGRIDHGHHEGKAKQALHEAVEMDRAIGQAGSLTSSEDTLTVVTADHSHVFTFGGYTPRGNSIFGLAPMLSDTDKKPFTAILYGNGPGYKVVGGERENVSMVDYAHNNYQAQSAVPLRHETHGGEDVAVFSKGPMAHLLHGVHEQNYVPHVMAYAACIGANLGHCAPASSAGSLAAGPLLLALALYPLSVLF
# Large T antigen, sequence (P03070 whole entry): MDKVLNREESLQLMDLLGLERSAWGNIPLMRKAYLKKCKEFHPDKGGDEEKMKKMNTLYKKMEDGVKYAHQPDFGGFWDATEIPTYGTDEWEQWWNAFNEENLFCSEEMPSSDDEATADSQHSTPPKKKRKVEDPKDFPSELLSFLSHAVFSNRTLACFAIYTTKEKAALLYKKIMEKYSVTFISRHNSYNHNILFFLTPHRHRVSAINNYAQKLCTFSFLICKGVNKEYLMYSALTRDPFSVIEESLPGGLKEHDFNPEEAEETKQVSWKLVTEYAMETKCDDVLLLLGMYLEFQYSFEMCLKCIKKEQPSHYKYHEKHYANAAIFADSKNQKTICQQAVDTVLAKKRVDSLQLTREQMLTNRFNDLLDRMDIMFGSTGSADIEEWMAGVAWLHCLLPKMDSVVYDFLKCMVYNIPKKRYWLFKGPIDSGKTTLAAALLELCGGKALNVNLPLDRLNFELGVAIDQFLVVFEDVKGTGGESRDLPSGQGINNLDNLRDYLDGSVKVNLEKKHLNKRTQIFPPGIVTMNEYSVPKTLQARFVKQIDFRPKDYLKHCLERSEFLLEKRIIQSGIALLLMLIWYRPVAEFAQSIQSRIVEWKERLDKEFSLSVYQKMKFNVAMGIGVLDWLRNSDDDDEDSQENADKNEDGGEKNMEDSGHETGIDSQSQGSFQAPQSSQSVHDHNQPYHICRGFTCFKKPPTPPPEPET
structure (smiles),measurement,setting,value
COc1ccc(NN=Nc2nc3c(=O)n(C)c(=O)n(C)c3[nH]2)cc1,IC50,Large T antigen,36.8 µM (active)
same,AC50,[1],> 60 µM (inactive)
same,AC50,[2],8.08 µM (active)
Cc1ccc(C(=O)NNC(=O)c2ccc3ccccc3c2O)cc1,AC50,[1],6.59 µM (active)
same,AC50,[2],8.8 µM (active)
same,IC50,[3],7.74 µM (active)
same,IC50,Albumin,> 94 µM (inactive)
COc1ccc(/N=C2\S/C(=C\c3ccc(OCC(=O)O)cc3)C(=O)N2CCc2c[nH]c3ccccc23)cc1,IC50,[4],> 99 µM (inactive)
same,IC50,Aminopeptidase N,75.7 µM (active)
same,IC50,[5],3.49 µM (active)
same,IC50,[6],2.52 µM (active)
same,IC50,[7],> 99 µM (inactive)
same,IC50,[8],> 99 µM (inactive)
same,IC50,[9],2.43 µM (active)
same,IC50,[10],> 158 µM (not active)
same,IC50,[11],< 1.24 µM (active)
same,IC50,[12],< 1.24 µM (active)
O=C1C2CC=CCC2C(=O)N1c1nnc(Cc2ccccc2)[nH]1 (stereo not drawn),IC50,[13],> 100 µM (not active)
same,IC50,[14],2.04 µM (active) and 3.25 µM (active)
same,IC50,[15],169 nM (active) and 126 nM (active) and 172 nM (active)
Oc1ccccc1-c1n[nH]c(-c2ccccc2O)n1,IC50,[13],> 100 µM (not active)
same,IC50,[14],> 100 µM (inactive)
same,IC50,[15],> 100 µM (inactive)

# Reference: ChEMBL document CHEMBL1201862, “PubChem BioAssay data set” (2004)
